Tests used:
[1] = biological target: T1, SRD5A3 (Homo sapiens, UniProt Q9H8P0); test: Western blot assay in HepG2 cells: SRD5A3; assay type: cell-based; settings: different concentrations at 24 h (FIG. 10)
T1 construct: The downregulation of SRD5A3 and GSPT1 (eRF3a) proteins in PC-3 and HepG2 cells by C59; endogenous in cells; host or cells: 22Rv1, PC-3, HepG2
T1 sequence (Q9H8P0 1-318): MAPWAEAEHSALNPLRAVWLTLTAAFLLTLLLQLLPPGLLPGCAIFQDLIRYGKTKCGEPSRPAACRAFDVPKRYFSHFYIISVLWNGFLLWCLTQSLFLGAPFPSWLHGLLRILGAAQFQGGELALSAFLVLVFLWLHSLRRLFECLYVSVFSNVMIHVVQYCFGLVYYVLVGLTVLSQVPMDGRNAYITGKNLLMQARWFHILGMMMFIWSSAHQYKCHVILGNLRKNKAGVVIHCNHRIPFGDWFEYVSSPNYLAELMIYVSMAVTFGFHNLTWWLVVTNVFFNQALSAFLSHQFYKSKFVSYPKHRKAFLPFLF
Description: (§1) Example 84: Western Blot Assay of Compound C59 in 22Rv1, PC-3, and HepG2 Cells
(§2) (1) Materials: 22Rv1, PC-3, and HepG2 cell, anti-SRD5A1 antibody (ab167606), anti-SRD5A2 antibody (ab124877), anti-SRD5A3 antibody (PA5-107029), anti-androgen receptor (AR) antibody (CST, No. 5153), anti-GSPT1 antibody (Abcam, ab234433), anti-GADPH antibody (CST, No. 5174), anti-c-Myc antibody (CST, No. 8583), anti-α-tublin antibody (CST, No. 2125), anti-rabbit IgG, HRP-linked antibody (CST, No. 7074), electrophoresis device and membrane transfer device (LIUYI, BEIJING; DYCZ-24DN)
(§3) Cell seeding: 22Rv1 (Cell Bank of the Chinese Academy of Sciences, TCHu100), PC-3 (Cell Bank of the Chinese Academy of Sciences, SCSP-532) and HepG2 cells (Cell Bank of the Chinese Academy of Sciences, TCHu72) were subcultured and trypsinized to prepare 6×10^5 cells/mL suspensions, seeded on 6-well plates (3 mL/well), and cultured overnight in a cell incubator at 5% CO2 and 37° C. […]
(§4) Protein quantification: The protein was quantified using a BCA protein quantification kit. […]
(§5) Western immunoblot assay (or Western blot, WB): SDS-PAGE gel at a proper concentration was prepared according to the molecular weight of the target protein: for example, the concentration of the separation gel was 8% and the concentration of the stacking gel was 5%. The loading volume was adjusted according to the protein quantification results. […]

[2] = test system: AR; test: Western blot assay in 22Rv1 cells: AR; assay type: cell-based, human; settings: different concentrations at 24 h, and 3 nM at different time points (FIGS. 7 and 8)
Description: as §1, §2, §3, §4, §5

[3] = biological target: T1, SRD5A3; test: Western blot assay in PC-3 cells: SRD5A3; assay type: cell-based; settings: different concentrations at 24 h (FIG. 9)
Description: as §1, §2, §3, §4, §5

[4] = biological target: T2, SRD5A1 (Homo sapiens, UniProt P18405); test: Western blot assay in 22Rv1 cells: SRD5A1; assay type: cell-based; settings: different concentrations at 24 h, and 3 nM at different time points (FIGS. 7 and 8)
T2 construct: The downregulation of SRD5A1, SRD5A3, AR, ARV7, GSPT1 proteins in 22Rv1 cells by C59; endogenous in cells; host or cells: 22Rv1
T2 sequence (P18405 whole entry): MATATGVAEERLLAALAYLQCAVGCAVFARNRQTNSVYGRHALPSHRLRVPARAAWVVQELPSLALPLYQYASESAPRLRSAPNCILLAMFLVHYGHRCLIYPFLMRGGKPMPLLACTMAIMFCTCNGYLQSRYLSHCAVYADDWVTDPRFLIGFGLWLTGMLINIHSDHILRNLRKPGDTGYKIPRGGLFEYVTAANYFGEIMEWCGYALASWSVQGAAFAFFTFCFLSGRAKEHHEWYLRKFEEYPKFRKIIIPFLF
Description: as §1, §2, §3, §4, §5

[5] = test system: DLD-1 cells; test: Anti-proliferative toxicity of C63 in tumor cell lines (CCK8): DLD-1; assay type: cell-based; settings: Homo sapiens, 72 h, 3 days, read-out: Inhibition rate
Experimental: Example 83: Detection of Anti-Proliferative Toxicity of C63 in Some Tumor Cell Lines
DLD-1 cells (purchased from the Cell Bank of the Chinese Academy of Sciences, Cat. No. TCHu134) were subcultured in a culture medium (RPMI-1640 medium+1% penicillin-streptomycin dual-antibiotic solution+10% fetal bovine serum) in an incubator at 5% carbon dioxide and 37° C.
DLD-1 cells were seeded at 2000 cells/well (90 μL) on a 96-well plate and cultured for 24 h.
10 mM compound stock solutions were prepared in DMSO.
The compound stock solution was diluted with DMSO to give DMSO solutions 1-9 at concentrations of 0 μM, 2500 μM, 500 μM, 100 μM, 20 μM, 4 μM, 0.8 μM, 0.16 μM, and 0.032 μM.
2 μL of each of solutions 1-9 was added to 98 μL of the medium to give mixed solutions 11-19 of the compound and the medium.
10 μL of each of solutions 11-19 was added to the above cell seed solution to give a total volume of 100 μL (90 μL+10 μL).
The concentrations of the compound in the wells were 0 μM, 5.0 μM, 1.0 μM, 0.2 μM, 0.04 μM, 0.008 μM, 0.0016 μM, 0.00032 μM, and 0.000064 μM. All concentrations were in triplicate.
After the above-treated cells were cultured for 3 days, 10 μL of the CCK8 solution (DOJINDO, Cat. No. PF725) was added to each well. The plate was incubated in an incubator at 37° C. for 1-4 h and then detected on a microplate reader for the reading at 450 nm.

| SMILES | downregulation of SRD5A3 protein (Western blot) [1] | downregulation of AR protein (Western blot) [2] | downregulation of SRD5A3 protein (Western blot) [3] | downregulation of SRD5A1 protein (Western blot) [4] | inhibition at 64 pM ([5]; 0.000064 μM) [%] | inhibition at 0.00032 µM ([5]; 0.000320 μM) [%] | inhibition at 0.0016 µM ([5]; 0.001600 μM) [%] | inhibition at 0.008 µM ([5]; 0.008000 μM) [%] | inhibition at 0.04 µM ([5]; 0.040000 μM) [%] | inhibition at 0.2 µM ([5]; 0.200000 μM) [%] | inhibition at 1 µM ([5]; 1.000000 μM) [%] | inhibition at 5 µM ([5]; 5.000000 μM) [%] |
| --- | --- | --- | --- | --- | --- | --- | --- | --- | --- | --- | --- | --- |
| C[C@]12C=CC(=O)N[C@@H]1CC[C@@H]1[C@@H]2CC[C@]2(C)[C@@H](C(=O)Nc3cccc(N[C@@H]4CCC[C@@H](Nc5cccc6c5C(=O)N(C5CCC(=O)NC5=O)C6=O)C4)c3)CC[C@@H]12 (stereo partly drawn) [C59, N-(3-(N—(N-(4-(2-(3-(2,6-dioxopiperidine))-isoindole-1,3-dione))-1R,3R-cyclohexanediamine))phenyl)-3-oxo-4-aza-5α-androst-1-ene-17β-carboxamide] | downregulation | downregulation | downregulation | downregulation | – | – | – | – | – | – | – | – |
| C[C@]12C=CC(=O)N[C@@H]1CC[C@@H]1[C@@H]2CC[C@]2(C)[C@@H](C(=O)Nc3cccc(N[C@@H]4CCC[C@@H](Nc5cccc6c5C(=O)N([C@H]5CCC(=O)NC5=O)C6=O)C4)c3)CC[C@@H]12 [C63, N-(3-(N—(N-(4-(2-(3S-(2,6-dioxopiperidine))-isoindole-1,3-dione))-1R,3R-cyclohexanediamine))phenyl)-3-oxo-4-aza-5α-androst-1-ene-17β-carboxamide] | – | – | – | – | 0.83 | 7.21 | 40.5 | 67.5 | 76.3 | 78.3 | 79.7 | 83.1 |
